Measured values: the NIST ThermoML archive (doi:10.1021/acs.jced.6b00688)

Experiment: xn = mol fraction of the nth substance listed
Conditions: 100 kPa, Liquid; for viscosity: Falling or rolling sphere viscometry; for mass density: Vibrating tube method

CCCCCCCO [heptan-1-ol] + CC1CCCCC1
Conditions	mass density [kg/m3]	viscosity [mPa·s]
293.15 K, x2 = 0.1004	817.38	5.541
293.15 K, x2 = 0.1991	812.34	4.404
293.15 K, x2 = 0.3134	806.43	3.336
293.15 K, x2 = 0.399	801.91	2.649
293.15 K, x2 = 0.4994	796.51	2.055
293.15 K, x2 = 0.5997	790.98	1.603
293.15 K, x2 = 0.6987	785.57	1.275
293.15 K, x2 = 0.7995	779.94	1.03
293.15 K, x2 = 0.8995	774.56	0.845
298.15 K, x2 = 0.1004	813.81	4.649
298.15 K, x2 = 0.1991	808.71	3.773
298.15 K, x2 = 0.3134	802.7	2.924
298.15 K, x2 = 0.399	798.1	2.325
298.15 K, x2 = 0.4994	792.62	1.83
298.15 K, x2 = 0.5997	787	1.448
298.15 K, x2 = 0.6987	781.49	1.165
298.15 K, x2 = 0.7995	775.77	0.951
298.15 K, x2 = 0.8995	770.3	0.79
303.15 K, x2 = 0.1004	810.21	4.037
303.15 K, x2 = 0.1991	805.04	3.261
303.15 K, x2 = 0.3134	798.92	2.548
303.15 K, x2 = 0.399	794.25	2.055
303.15 K, x2 = 0.4994	788.68	1.64
303.15 K, x2 = 0.5997	782.98	1.314
303.15 K, x2 = 0.6987	777.38	1.068
303.15 K, x2 = 0.7995	771.56	0.879
303.15 K, x2 = 0.8995	766	0.736
308.15 K, x2 = 0.1004	806.59	3.484
308.15 K, x2 = 0.1991	801.33	2.838
308.15 K, x2 = 0.3134	795.12	2.235
308.15 K, x2 = 0.399	790.37	1.827
308.15 K, x2 = 0.4994	784.72	1.476
308.15 K, x2 = 0.5997	778.93	1.197
308.15 K, x2 = 0.6987	773.24	0.983
308.15 K, x2 = 0.7995	767.32	0.816
308.15 K, x2 = 0.8995	761.67	0.702
313.15 K, x2 = 0.1004	802.94	3.027
313.15 K, x2 = 0.1991	797.6	2.485
313.15 K, x2 = 0.3134	791.3	1.932
313.15 K, x2 = 0.399	786.47	1.633
313.15 K, x2 = 0.4994	780.73	1.335
313.15 K, x2 = 0.5997	774.85	1.094
313.15 K, x2 = 0.6987	769.07	0.907
313.15 K, x2 = 0.7995	763.06	0.759
313.15 K, x2 = 0.8995	757.31	0.645
318.15 K, x2 = 0.1004	799.26	2.643
318.15 K, x2 = 0.1991	793.83	2.188
318.15 K, x2 = 0.3134	787.42	1.749
318.15 K, x2 = 0.399	782.53	1.468
318.15 K, x2 = 0.4994	776.7	1.213
318.15 K, x2 = 0.5997	770.74	1.004
318.15 K, x2 = 0.6987	764.87	0.84
318.15 K, x2 = 0.7995	758.76	0.708
318.15 K, x2 = 0.8995	752.93	0.607
323.15 K, x2 = 0.1004	795.54	2.322
323.15 K, x2 = 0.1991	790.03	1.937
323.15 K, x2 = 0.3134	783.52	1.559
323.15 K, x2 = 0.399	778.55	1.324
323.15 K, x2 = 0.4994	772.64	1.106
323.15 K, x2 = 0.5997	766.59	0.924
323.15 K, x2 = 0.6987	760.64	0.779
323.15 K, x2 = 0.7995	754.43	0.662
323.15 K, x2 = 0.8995	748.52	0.572
328.15 K, x2 = 0.1004	791.78	2.05
328.15 K, x2 = 0.1991	786.18	1.723
328.15 K, x2 = 0.3134	779.58	1.396
328.15 K, x2 = 0.399	774.54	1.2
328.15 K, x2 = 0.4994	768.55	1.011
328.15 K, x2 = 0.5997	762.41	0.853
328.15 K, x2 = 0.6987	756.36	0.725
328.15 K, x2 = 0.7995	750.06	0.621
328.15 K, x2 = 0.8995	744.07	0.54
333.15 K, x2 = 0.1004	787.98	1.82
333.15 K, x2 = 0.1991	782.3	1.541
333.15 K, x2 = 0.3134	775.6	1.254
333.15 K, x2 = 0.399	770.5	1.092
333.15 K, x2 = 0.4994	764.42	0.928
333.15 K, x2 = 0.5997	758.17	0.789
333.15 K, x2 = 0.6987	752.05	0.676
333.15 K, x2 = 0.7995	745.66	0.584
333.15 K, x2 = 0.8995	739.59	0.512
